Measurements reported in PMC8765781, “A platform of assays for the discovery of anti-Zika small-molecules with activity in a 3D-bioprinted outer-blood-retina model” (PLoS ONE, 2022).
Where two headings read alike, the source gives them in different places. *1 amine or outer side, *2 acyl side, *3 side chain or, on linkers, in order; H or OH if unused. Where a SMILES comes first, the peptide text is derived from it. Bridges are numbered along the chain shown (N, C = ends). [ ]: non-standard residue; d: D form. The star is where a group is joined. pTerphenylCO(4''-OnC5H11) = CCCCCOc1ccc(-c2ccc(-c3ccc(C(=O)*)cc3)cc2)cc1; Orn(4R-OH,5R-OH) = O=C([C@H](C[C@@H](O)[C@@H](O)N[*:3])N[*:1])[*:2]; hTyr(3S-OH,4S-OH) = N[C@H](C(=O)O)[C@H](O)[C@@H](O)c1ccc(O)cc1; Pro(3S-OH,4S-Me) = C[C@H]1CN[C@H](C(=O)O)[C@H]1O; Hyp = O=C(O)[C@@H]1C[C@@H](O)CN1

Experiments:
[1] = test system: ZIKV-RLuc (Cambodian strain FSS13025); experiment: microbe, parasite or virus in culture; assay type: cell-based, Zika virus; conditions: for AC50: Zika virus, Vero
[2] = test system: wild-type ZIKV (Ugandan MR766 strain) in Vero cells; experiment: ZIKV cytopathic effect (CPE) inhibition qHTS assay, CellTiter-Glo readout; assay type: cell-based, Zika virus; conditions: for AC50 / Emax: Zika virus, Vero; for Emax: read-out: Max response
[3] = read-out: Log AC50 (M) (converted)

Compound | CC-v2 (curve class classification v2 of the dose response curve) [1] | Max Resp (difference between neutral response and compound response for highest compound concentration) [1] | CC-v2 (curve class classification of the dose response curve) [2] | Efficacy [2] | AC50 [2] [M] | AC50 [2, 3] [M] | also measured
CC(C)COCC(CN(Cc1ccccc1)c1ccccc1)N1CCCC1 (stereo not drawn) [NCGC00015155-11] | -2.2 | -86.237 |  |  |  |  | Efficacy (difference between neutral response and maximum compound response) [1]: -53.208
COc1cc2nc(N3CCN(C(=O)c4ccco4)CC3)nc(N)c2cc1OC [NCGC00016740-18] |  | -5.44 |  |  |  |  | 
CN1CCN(CCCN2c3ccccc3Sc3ccc(S(=O)(=O)N(C)C)cc32)CC1.CS(=O)(=O)O.CS(=O)(=O)O [NCGC00017040-01] | 4 | -22.476 |  |  |  |  | Efficacy (difference between neutral response and maximum compound response) [1]: -28.971
CCN(CC)Cc1cc(Nc2ccnc3cc(Cl)ccc23)ccc1O [NCGC00017063-03] | 4 | 20.219 |  |  |  |  | Efficacy (difference between neutral response and maximum compound response) [1]: 28.757
CCOc1cc(N)c(Cl)cc1C(=O)NCC1CN(Cc2ccc(F)cc2)CCO1 (stereo not drawn) [NCGC00160527-05] | 4 | -14.706 |  |  |  |  | Efficacy (difference between neutral response and maximum compound response) [1]: -16.441
CN1CCC(=C2c3ccccc3CCc3sccc32)CC1 [NCGC00163169-02] | 4 | -9.44 |  |  |  |  | Efficacy (difference between neutral response and maximum compound response) [1]: 14.14
Cc1cccc(C)c1OCC(=O)N[C@@H](Cc1ccccc1)[C@@H](O)C[C@H](Cc1ccccc1)NC(=O)[C@H](C(C)C)N1CCCNC1=O [NCGC00164576-04] | 4 | -20.627 |  |  |  |  | 
CCCCCCCCCCC[C@@H](C[C@@H]1OC(=O)[C@H]1CCCCCC)OC(=O)C(CC(C)C)NC=O (stereo partly drawn) [NCGC00165856-03] | -3 | -33.733 |  |  |  |  | Efficacy (difference between neutral response and maximum compound response) [1]: 0
CC[C@@]1([C@@H]2O[C@@H]([C@H]3O[C@@](O)(CO)[C@H](C)C[C@@H]3C)C[C@@H]2C)CC[C@H]([C@]2(C)CC[C@]3(C[C@H](O)[C@@H](C)[C@@H]([C@@H](C)[C@@H](OC)[C@H](C)C(=O)O)O3)O2)O1 [NCGC00179454-04] | 4 | -20.473 |  |  |  |  | Efficacy (difference between neutral response and maximum compound response) [1]: 29.905
CC1(C)C=Cc2c(ccc(C(=O)/C=C/c3ccccc3)c2O)O1 [NCGC00187466-03] | 4 | -35.49 |  |  |  |  | 
CC[C@@H]1C(=O)N(C)c2cnc(Nc3ccc(C(=O)NC4CCC(N5CCN(CC6CC6)CC5)CC4)cc3OC)nc2N1C(C)C (stereo partly drawn) [NCGC00263087-01] | 4 | 10.387 |  |  |  |  | Efficacy (difference between neutral response and maximum compound response) [1]: 12.227
CC(C)(N)C(=O)N[C@H](COCc1ccccc1)C(=O)N1CCC2(CC1)CN([S+](C)(=O)[O-])c1ccccc12 [NCGC00263115-01] | 4 | -0.591 |  |  |  |  | Efficacy (difference between neutral response and maximum compound response) [1]: -25.4
CCCCc1ccc(N[S+](=O)([O-])c2ccc(C)c(C(=O)N3CCN(c4cccc(C)c4C)CC3)c2)cc1 [NCGC00263234-01] | -3 | -30.256 |  |  |  |  | Efficacy (difference between neutral response and maximum compound response) [1]: -38.307; AC50 [1]: 7.59e-05 M; AC50 [1, 3]: 7.59e-05 M
C=C1/C(=C/C=C2\CCC[C@]3(C)[C@@H]([C@H](C)/C=C/[C@@H](C)C(C)C)CC[C@@H]23)C[C@@H](O)C[C@@H]1O [NCGC00386145-01] |  |  | -3 | -42.433 | 6.51e-05 | 6.51e-05 | 
C=CC(C)(O)CC[C@@H]1[C@@]2(C)CCCC(C)(C)C2CC[C@@]1(C)O (stereo partly drawn) [NCGC00386171-01] |  |  |  | -26.101 | 5.8e-05 | 5.8e-05 | 
C=CC(=O)Nc1ccc2ncnc(Nc3cccc(Br)c3)c2c1 [NCGC00386260-02] |  |  |  | -35.975 | 7.31e-05 |  | Curve class [2]: -3; AC50 ([2]; read-out: Log AC50 (converted)): > 4.6e-05 M; Emax [2]: -31.6%
Cc1cc(C)c(-c2csc(NC(=O)c3ccccc3)n2)c(C)c1 [NCGC00386342-01] |  |  |  | -75.252 | 2.31e-05 |  | Curve class [2]: -3; AC50 ([2]; read-out: Log AC50 (converted)): 2.31e-05 M; Emax [2]: 8.19%
CCCCCOc1ccc(-c2ccc(-c3ccc(C(=O)N[C@H]4C[C@@H](O)[C@@H](O)NC(=O)[C@@H]5[C@@H](O)[C@@H](C)CN5C(=O)[C@H]([C@@H](C)O)NC(=O)[C@H]([C@H](O)[C@@H](O)c5ccc(O)cc5)NC(=O)[C@@H]5C[C@@H](O)CN5C(=O)[C@H]([C@@H](C)O)NC4=O)cc3)cc2)cc1 [NCGC00386349-01] ({pTerphenylCO(4''-OnC5H11)}-[Orn(4R-OH,5R-OH)]T[Hyp][hTyr(3S-OH,4S-OH)]T[Pro(3S-OH,4S-Me)]; lactam 1-C) |  |  | -2.2 | -31.74 | 1.26e-05 | 1.26e-05 | 
CN(CC[C@H](N)CC(=O)N[C@H]1C=C[C@@H](n2ccc(N)nc2=O)O[C@@H]1C(=O)O)C(=N)N [NCGC00386414-01] |  |  | -1.1 | -84.972 | 2.66e-06 | 2.66e-06 | 
CCOCCn1nc(CC)c2nc(N3CCC(C(=O)O)CC3)nc(Nc3cc(C)ccn3)c21 [NCGC00386619-01] |  |  |  | -25.995 | 4.11e-05 | 4.11e-05 | 

Compound | CC-v2 (curve class classification v2 of the dose response curve) [1] | Max Resp (difference between neutral response and compound response for highest compound concentration) [1] | CC-v2 (curve class classification of the dose response curve) [2] | Efficacy [2] | AC50 [2] [M] | AC50 [2, 3] [M] | also measured
CC(C)C[C@H](CO)Nc1nc(S[C@@H](C)c2ccccc2)nc2nc(N)sc12 [NCGC00386735-01] |  |  |  | -23.549 | 5.17e-05 | 5.17e-05 | 
C=C(C)[C@@H]1CC=C(COC(=O)NC(=O)c2ncn3c(=O)n(C)nnc23)CC1 [NCGC00386754-01] |  |  | -3 | -41.908 | 6.51e-05 | 6.51e-05 | 
Cc1cc(N2CCN(C(=O)Oc3ccc(-c4ccccc4)cn3)CC2)c2ccccc2n1 [NCGC00386928-01] |  |  | -3 | -62.282 |  |  | 
Cc1cc(C(=O)Nc2cc(Nc3ccc4c(/C=C/c5ccccn5)[nH]nc4c3)ccc2F)n(C)n1 [NCGC00387023-01] |  |  |  | -55.32 | 3.66e-05 | 3.66e-05 | 
CC1(C)CC=C(C#Cc2ccccc2)c2cc(/C=C/c3ccc(C(=O)O)cc3)ccc21 [NCGC00387103-01] |  |  | -2.2 | -97.274 | 5.17e-05 | 5.17e-05 | 
CCOC(=O)C1=C(N)Oc2ccc(Cl)cc2C1C(C#N)C(=O)OCC (stereo not drawn) [NCGC00387181-02] |  |  | -2.2 | -45.481 | 3.66e-05 | 3.66e-05 | 
Cc1cc(C(=O)Nc2cccc(C(=O)Nc3cccc(C(F)(F)F)c3)c2)on1 [NCGC00387256-02] |  |  |  | -18.226 | 7.31e-05 | 7.31e-05 | 
Cc1cc2c(F)c(Oc3ncnn4cc(OCC(C)OC(=O)C(C)N)c(C)c34)ccc2[nH]1 (stereo not drawn) [NCGC00389340-01] |  |  |  | -57.426 |  |  | Curve class [2]: -3; Emax [2]: -49.7%
Cc1cc(OCCC[S+](C)(=O)[O-])cc(C)c1-c1cccc(COc2ccc3c(c2)OCC3CC(=O)O)c1 (stereo not drawn) [NCGC00389617-01] |  |  | -3 | -41.849 | 2.31e-05 | 2.31e-05 | 
Cc1cc2c(F)c(Oc3ncnn4cc(OCC(C)O)c(C)c34)ccc2[nH]1 (stereo not drawn) [NCGC00389770-01] |  |  |  | -29.933 | 6.51e-05 | 6.51e-05 | 
COc1cc(N(C)CCN(C)C)c(N)cc1Nc1nccc(-c2cn(C)c3ccccc23)n1 [NCGC00390638-01] |  |  | -3 | -48.353 | 6.51e-05 | 6.51e-05 | 
CCC(=C(c1ccc(OCCN2CCCC2)cc1)c1ccc(OCCN2CCCC2)cc1)c1ccccc1 [NCGC00408918-01] |  |  | -3 | -39.621 | 5.8e-05 | 5.8e-05 | 
C=CC(=O)N1CCCN(c2cc(NCCC(=O)O)nc(-c3ccccn3)n2)CC1 [NCGC00420854-01] |  |  |  | -33.164 | 5.8e-05 | 5.8e-05 | 
C=Cc1cc2oc(-c3ccc(O)c(F)c3)nc2cc1O [NCGC00485115-01] |  |  |  | -24.649 | 6.51e-05 | 6.51e-05 | 
COC(=O)C1=C(C)NC(C)=C(C(=O)OC)C1c1cccc(NC(=O)NCCCN2CCC(c3cccc(OC)c3)CC2)c1 [NCGC00485144-01] |  |  |  | -27.731 | 7.31e-05 | 7.31e-05 | 
C[C@H]1CCC[C@H](O)CCC/C=C/c2cc(O)cc(O)c2C(=O)O1 [NCGC00485224-01] |  |  | -3 | -58.539 | 6.51e-05 | 6.51e-05 | 
C[C@@]1(O)[C@H](O)[C@@H](CO)O[C@H]1n1cnc2c(=O)[nH]c(N)nc21 [NCGC00485409-01] |  |  |  | -27.977 | 3.66e-05 | 3.66e-05 | 
O=C(O)c1ccc2c(c1)nc(Nc1cccc(Cl)c1)c1ccncc12 [NCGC00485907-01] |  |  |  | -41.903 | 6.51e-05 | 6.51e-05 | 
C/C(=N\NC(=N)N)c1cc(NC(=O)CCCCCCCCC(=O)Nc2cc(/C(C)=N/NC(=N)N)cc(/C(C)=N/NC(=N)N)c2)cc(/C(C)=N/NC(=N)N)c1 [NCGC00487056-01] |  |  | -2.2 | -56.895 | 5.8e-05 | 5.8e-05 | 
